From ChEMBL document CHEMBL1201862, “PubChem BioAssay data set” (2004)
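Following 48 hours of exposure in 96-well plates, responses at five concentrations were used to interpolate endpoints linearly. Here, GI50 denotes the concentration required for 50% inhibition of growth.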 The source made the active and inactive calls. No stated cut-off is given here; in the data, active = GI50 up to about 1.1 µM and inactive = higher.

Experiments:
Assay in all cases: inhibition of tumour cell growth, NCI panel, 48 h
ACHN = test system: ACHN
HL-60 = test system: HL-60
OVCAR-4 = test system: OVCAR-4
SW-620 = test system: SW-620
NCI-H23 = test system: NCI-H23
COLO 205 = test system: COLO 205
UACC-62 = test system: UACC-62
LOX IMVI = test system: LOX IMVI
RPMI-8226 = test system: RPMI-8226
NCI-H522 = test system: NCI-H522
M14 = test system: M14
SK-MEL-2 = test system: SK-MEL-2
MOLT-4 = test system: MOLT-4
RXF 393 = test system: RXF 393
UACC-257 = test system: UACC-257
OVCAR-8 = test system: OVCAR-8
HOP-92 = test system: HOP-92

Measured: GI50

COC(=O)c1c/c(=N\NC(=O)CC(=O)Nc2ccccc2OC)c2ccccc2o1
inactive: ACHN > 100 µM | HL-60 > 100 µM | OVCAR-4 > 100 µM | SW-620 > 100 µM | NCI-H23 > 100 µM | COLO 205 > 100 µM | UACC-62 > 100 µM | LOX IMVI 66.8 µM | RPMI-8226 > 100 µM | NCI-H522 > 100 µM | M14 > 100 µM | SK-MEL-2 > 100 µM | MOLT-4 75.7 µM

O=C(CN(c1ccccc1)c1ccccc1)N1c2ccccc2C2C=CC=CC21 (stereo unspecified)
inactive: ACHN 24 µM | RXF 393 30.5 µM | HL-60 7.23 µM | OVCAR-4 11.1 µM | SW-620 23.7 µM | NCI-H23 23.2 µM | COLO 205 11 µM | UACC-257 18.3 µM | UACC-62 21.1 µM | LOX IMVI 18.2 µM | OVCAR-8 20.7 µM | RPMI-8226 8.22 µM | NCI-H522 18 µM | M14 25.6 µM | SK-MEL-2 18.1 µM | MOLT-4 8.05 µM

CCOC(=O)C(C)(C)Oc1ccc2c(=O)cc(-c3ccccc3)oc2c1
inactive: ACHN 54.7 µM | RXF 393 21.2 µM | HL-60 14.1 µM | SW-620 22.8 µM | NCI-H23 18.6 µM | COLO 205 19.6 µM | UACC-257 17.4 µM | UACC-62 18.2 µM | LOX IMVI 17.5 µM | OVCAR-8 23 µM | RPMI-8226 14.1 µM | NCI-H522 13.9 µM | M14 19.5 µM | SK-MEL-2 16.9 µM | MOLT-4 13.8 µM

C=CCO/N=C(\OC(=O)c1ccc([N+](=O)[O-])cc1)c1ccccc1
inactive: ACHN > 100 µM | OVCAR-4 > 100 µM | SW-620 > 100 µM | NCI-H23 > 100 µM | COLO 205 > 100 µM | UACC-62 > 100 µM | OVCAR-8 > 100 µM | RPMI-8226 > 100 µM | M14 > 100 µM | SK-MEL-2 > 100 µM | HOP-92 > 100 µM

N=C(N)n1ncc(Cl)c(Cl)c1=O
inactive: ACHN 3.81 µM | HL-60 2.21 µM | OVCAR-4 1.91 µM | SW-620 1.88 µM | NCI-H23 2.45 µM | COLO 205 1.88 µM | UACC-257 2.13 µM | UACC-62 2.48 µM | OVCAR-8 2.15 µM | RPMI-8226 2.28 µM | NCI-H522 1.79 µM | M14 1.98 µM | SK-MEL-2 2.47 µM | HOP-92 2.43 µM | MOLT-4 2.02 µM

N#Cc1ccc(OCCSCCCCCCCCCCSCCOc2ccc(C#N)cc2)cc1
inactive: ACHN > 100 µM | RXF 393 > 100 µM | HL-60 > 100 µM | SW-620 > 100 µM | NCI-H23 > 100 µM | COLO 205 > 100 µM | UACC-257 2.25 µM | UACC-62 > 100 µM | LOX IMVI > 100 µM | OVCAR-8 > 100 µM | RPMI-8226 > 100 µM | NCI-H522 29.6 µM | M14 > 100 µM | SK-MEL-2 > 100 µM | MOLT-4 > 100 µM

COC(=O)C1=CC2OC1(C)C1(CC1)C2=O (stereo unspecified)
inactive: ACHN 15.3 µM | RXF 393 15.5 µM | HL-60 4.02 µM | OVCAR-4 11.6 µM | SW-620 14.7 µM | NCI-H23 22 µM | COLO 205 13.5 µM | UACC-257 16.1 µM | LOX IMVI 14 µM | OVCAR-8 16 µM | RPMI-8226 6.85 µM | NCI-H522 5.73 µM | M14 13.5 µM | SK-MEL-2 > 10 µM | MOLT-4 6.92 µM

COC1(OC)CCCCC2c3cccc(OC(C)=O)c3C21OC(C)=O (stereo unspecified)
inactive: ACHN 78.9 µM | HL-60 65.8 µM | OVCAR-4 > 100 µM | SW-620 > 100 µM | NCI-H23 > 100 µM | COLO 205 > 100 µM | UACC-257 > 100 µM | UACC-62 > 100 µM | LOX IMVI > 100 µM | OVCAR-8 > 100 µM | RPMI-8226 54 µM | NCI-H522 > 100 µM | M14 > 100 µM | SK-MEL-2 > 100 µM | MOLT-4 64.3 µM

CC1CC[C@]2(C(=O)O)CCC3(COC(=O)/C=C\c4ccc(O)cc4)C(=CCC4[C@@]5(C)CC[C@H](O)C(C)(C)C5CC[C@]43C)[C@@H]2[C@H]1C (stereo partly specified)
inactive: ACHN 10.4 µM | RXF 393 17.5 µM | HL-60 26.2 µM | OVCAR-4 39.3 µM | SW-620 27.9 µM | NCI-H23 13.9 µM | COLO 205 23.3 µM | UACC-257 31 µM | UACC-62 17.2 µM | LOX IMVI 14.1 µM | OVCAR-8 20.1 µM | RPMI-8226 22.3 µM | NCI-H522 17.5 µM | M14 17.6 µM | SK-MEL-2 20.8 µM | MOLT-4 26.6 µM
